Values of other authors in US5962457A, “2,3 Disubstituted- (5,6)-heteroarylfused-pyrimidine-4-ones” (Pfizer Inc., priority 1997, dated 1999).

Assays:
[1] = rat global ischemia models; LaPeillet et al.
[2] = focal and global ischemia models; Sheardown et al., Buchan et al., LePeillet et al.

SMILES | neuroprotection in global ischemia [1] | prevention of global and focal ischemic damage [2]
CC1=NN=C(c2ccc(N)cc2)c2cc3c(cc2C1)OCO3 [GKYI 52466] | effective neuroprotective agent | 
NS(=O)(=O)c1cccc2c1c([N+](=O)[O-])cc1[nH]c(=O)c(=O)[nH]c12 [NBQX, 2,3-dihydroxy-6-nitro-7-sulfamoylbenzo[f-]quinoxaline] |  | effective in preventing global and focal ischemic damage
